One compound from article PMC6530361, “Anti-tumor Efficacy Assessment of the Sigma Receptor Pan Modulator RC-106. A Promising Therapeutic Tool for Pancreatic Cancer” (Frontiers in Pharmacology, 2019) can be followed below.

Data set [1] deals with Capan-1. Description: MTS assay (cell viability, 2D). Type of data set: cell-based. Conditions: Homo sapiens. On the procedure: (§1) Pancreatic adenocarcinoma Panc-1, Capan-1, and Capan-2, cell lines were purchased by the ATCC. All cell lines were grown in culture medium composed of DMEM/Ham’s F12 (1:1; Euroclone) supplemented with fetal calf serum (10%; Euroclone), glutamine (2 mM; Euroclone), and insulin (10 μg/mL; Sigma-Aldrich, St. Louis, MO, United States). All experiments were performed on cells in the exponential growth phase and checked periodically for mycoplasma contamination by MycoAlert^TM Mycoplasma Detection Kit (Lonza, Basel, Switzerland).
(§2) Cytotoxicity was assayed using CellTiter 96® AQueous One Solution Cell Proliferation Assay (Promega, Milan, Italy). Cells were seeded onto a 96-well plate at a density of 3 × 10^3 cells per well. Cell lines were exposed to increasing concentrations of the drug, ranging from 0.1 to 100 μM. The effect of the drug was evaluated after 24, 48, and 72 h of continued exposure. Two independent experiments were performed in octuplicate. The OD of treated and untreated cells was determined at a wavelength of 490 nm using a […].
(§3) Dose response curves were created by Excel software. IC50 values were determined graphically from the plot.
Background: Tetrazolium assays rely on reduction of a dye to a coloured formazan, in cell work by metabolically active cells.

Data set [2] deals with Capan-2. Description: MTS assay (cell viability, 2D). Format: cell-based. The note with it: Homo sapiens. On the procedure:
as §1, §2, §3

The subject of data set [3] is Panc-1. Description: MTS assay (cell viability, 2D). Type of data set: cell-based. The note with it: Homo sapiens. On the procedure:
as §1, §2, §3

The test system of data set [4] is Panc-1, Capan-1, and Capan-2. Description: MTS assay, all cell lines tested. Type of data set: cell-based. The note with it: 24, 48, and 72 h exposure. On the procedure: as §1, §2, §3
Data set [5] relates to Panc-1 spheroids. Briefly: CellTiter-Glo 3D cell viability assay. Type of data set: cell-based. The note with it: Homo sapiens, PANC-1, 48 h, 3D spheroids, diameter up to 600 μm, 12.5–50 μM. On the procedure: (§4) Spheroids were obtained as previously described ([Zanoni et al., 2016]). Briefly, a rotatory cell culture system RCCS (Synthecon Inc., Houston, TX, United States) was used. The rotary systems were placed inside a humidified 37°C, 5% CO2 incubator and all procedures were performed in sterile conditions. Single cell suspensions of about 1 × 10^6 cells/ml of Panc-1 were placed in the 50 mL rotating chamber at an initial speed of 12 rpm. Speed was increased as cells formed aggregates to avoid sedimentation. The culture medium was changed every 4 days and tumor spheroids with an equivalent diameter ranging from about 500–1300 μm were obtained in around 15 days. After formation, spheroids were transferred into a 96-well low-attachment culture plates (Corning Inc., Corning, NY, United States; one spheroid/well), containing 100 μL of fresh culture medium per well.
Cell viability of Panc-1 spheroids was measured using a 3D cell viability assay (Promega, Milan, Italy). Briefly, homogeneous spheroids were removed from the 96-well low-attachment culture plate and placed separately in single wells of a 96-well opaque culture plate (BD Falcon). CellTiter-Glo® 3D reagent was added to each well and the luminescence signal was read after 30 min with the GloMax® bioluminescent reader (Promega).
The analysis of morphological parameters were performed as previously described ([Piccinini et al., 2017]). […]
Background: In ATP-based viability assays light output follows the ATP content of the culture.

The test system of data set [6] is proteasome activity of PANC-1, Capan-1, and Capan-2. Briefly: Proteasome activity assay, all cell lines. Type of data set: cell-based. The note with it: 20–100 μM, 24 h, all PC cell lines. On the procedure:
(§5) Cells were seeded in 6-well plates at density of 250 × 10^3 cells/well. Cells were treated with increasing concentration of RC-106 and after 24 h total protein extracts were obtained: cells were washed 2 times with PBS and lysed with 100 μL of lysis buffer (Hepes 5 mM pH 7.5, NaCl 150 mM, Glycerol 10%, Triton X100 1%, MgCl2 1.5 mM, EGTA 5 mM). Protein concentration of samples was quantified using Bradford method. Proteasome activity was quantified as described below. Proteasome solution was composed by 40 μg of proteins, 10 μL of 10X proteasome buffer (Hepes pH 7.5 250 mM, EDTA pH 8.0 5 mM, NP-40 0.5%, SDS 0.01%) and 10 μL of 10 mM proteasome substrate (N-Succinyl-Leu-Leu-Val-Tyr-7-Amido-4-Methylcoumarin, 7.6 mg/mL; Sigma-Aldrich, United States). 100 μL of proteasome solution was loaded in wells of a black 96-well plate. The plate was then incubated at 37°C for 2 h and the fluorescence was measured in a microplate reader (excitation 380 nm, emission 460 nm; BMG-Labtech, Germany).

Data set [7] concerns proteasome activity of Capan-1. Description: Proteasome activity assay. Type of data set: cell-based. Conditions: Capan-1, 24 h, highest concentration used. On the procedure: as §5
The test system of data set [8] is proteasome activity of Capan-2. Briefly: Proteasome activity assay. The note with it: Capan-2, 24 h. Type of data set: cell-based. On the procedure:
as §5

Data set [9] deals with Capan-1. Description: Migration scratch wound healing assay. Type of data set: cell-based. On the procedure: (§6) Cells were seeded in a 6-well plate and were incubated at 37°C until confluence of 90–100% was reached. Culture medium was then replaced by serum free medium. After 24 h, a scratch was made on cell monolayer using a plastic tip and wells were washed 2 times with PBS to remove detached cells and debris. Culture medium, with or without RC-106, was added to each well. Micrographs of the scratches were taken at 0 h, immediately after the scratch, and at 24, 48, and 72 h. Cell migration area was quantified using IMAGEJ software.

Data set [10] relates to Capan-2. Description: Migration scratch wound healing assay. Format: cell-based. Conditions: Capan-2, 20 and 40 μM, after 48 and 72 h. On the procedure: as §6
The test system of data set [11] is Panc-1. Description: Migration scratch wound healing assay. Format: cell-based. Conditions: Panc-1, 60 μM, all considered time points (24, 48, 72 h). On the procedure: as §6
Data set [12] has as its system Panc-1 spheroids. Description: Analysis of morphological parameters of 3D tumor spheroids. Conditions: 50 μM, 48 h. Type of data set: cell-based. On the procedure: as §4
The analysis of morphological parameters were performed as previously described ([Piccinini et al., 2017]). Briefly, an inverted Olympus IX51 microscope (Olympus Corporation, Tokyo, Japan), equipped with a Nikon Digital Sight DS-Vi1 camera (CCD vision sensor, square pixels of 4.4 μm side length, 1600 × 1200 pixel resolution, 8-bit gray level; Nikon Instruments, Spa. Florence, Italy) was used to take images and for morphological analyses. […]

Read-outs that look alike come from different tables or passages of the source.

The term IC50 denotes the midpoint of a concentration-inhibition curve. As usually defined, the melting point is the temperature of the solid-liquid transition.

With `C/C(=C\CN1CCC(Cc2ccccc2)CC1)c1ccc2ccccc2c1` [RC-106, (E)-4-benzyl-1-(3-(naphthalen-2-yl)but-2-en-1-yl)piperidine], the melting point was 221 to 222 °C. Besides, the IC50 in the data set with Capan-1 [1] (CAPAN-1, 24 h exposure, read-out: IC50 values 24h) was found to be 56.8 ± 0.98 µM. In addition, the IC50 in the data set with Capan-1 [1] (CAPAN-1, 48 h exposure, read-out: IC50 values 48h) was determined as 50.3 ± 3.04 µM. In addition, in the data set on Capan-1 [1] (CAPAN-1, 72 h exposure, read-out: IC50 values 72h), the IC50 worked out at 32.8 ± 3.43 µM. Also, in the data set with Capan-2 [2] (CAPAN-2, 24 h exposure, read-out: IC50 values 24h), the IC50 came to 52.6 ± 0.07 µM. Also, in the data set on Capan-2 [2] (CAPAN-2, 48 h exposure, read-out: IC50 values 48h), the IC50 is 54.2 ± 2.18 µM. Further, the IC50 with Capan-2 [2] (CAPAN-2, 72 h exposure, read-out: IC50 values 72h) was 53.3 ± 1.62 µM. Moreover, in the data set on Panc-1 [3] (PANC-1, 24 h exposure, read-out: IC50 values 24h), the IC50 amounted to 55.3 ± 0.7 µM. Moreover, in the data set with Panc-1 [3] (PANC-1, 48 h exposure, read-out: IC50 values 48h), the IC50 worked out at 51.7 ± 1.38 µM. Besides, in the data set on Panc-1 [3] (PANC-1, 72 h exposure, read-out: IC50 values 72h), the IC50 is 52.1 ± 0.47 µM. The compound further displayed an IC50 in [4] of 33 to 57 µM. In the data set on Panc-1 spheroids [5], this compound showed an IC50 of 39.6 µM. Besides, the proteasome activity entry in data set [6] was “reduce proteasome activity in a dose dependent manner”. In addition, in [7], the “concentration at which greatest proteasome inhibition is observed” value is 100 µM. For the same compound, in data set [8], the “lowest concentration used to inhibit proteasome activity” value was 20 µM. Moreover, in the data set with Capan-1 [9] (Capan-1, 20 μM, after 48 h), the cell migration result was “significantly reduced”. For the same compound, the cell migration result in the data set with Capan-1 [9] (Capan-1, 40 and 60 μM, after 24 h) is “reduced cell migration”. In addition, the cell migration result in the data set with Capan-2 [10] is listed as “significatively reduceded”. In addition, the cell migration entry in the data set on Panc-1 [11] is on record as “significatively reduced”. Also, the “3D morphological parameters of spheroids” value in the data set on Panc-1 spheroids [12] is “complete disaggregation of spheroid organization and cytoarchitecture”.
